ChEMBL document CHEMBL1131216, “Anhydrolide macrolides. 2. Synthesis and antibacterial activity of 2,3-anhydro-6-O-methyl 11,12-carbazate erythromycin A analogues” (1998)
In brackets after ≈: the same amount, converted by molar mass.

Tests used:
Format in all cases: functional
Streptococcus pyogenes [1] = assay: In vitro antibacterial activity of EES61 strain of Gram positive bacteria Streptococcus pyogenes
Haemophilus influenzae = assay: In vitro antibacterial activity of DILL strain of Gram negative bacteria Haemophilus influenzae
Streptococcus pneumoniae [2] = assay: In vitro antibacterial activity of ATCC 6303 strain of Gram positive bacteria Streptococcus pneumoniae
Staphylococcus aureus [3] = assay: In vitro antibacterial activity of A5177 strain of Gram positive bacteria Staphylococcus aureus
Streptococcus pneumoniae [4] = assay: In vitro antibacterial activity of 5979 strain of Gram positive bacteria Streptococcus pneumoniae
Streptococcus pyogenes [5] = assay: In vitro antibacterial activity of 930 strain of Gram positive bacteria Streptococcus pyogenes
Streptococcus pneumoniae [6] = assay: In vitro antibacterial activity of 5649 strain of Gram positive bacteria Streptococcus pneumoniae
Staphylococcus aureus [7] = assay: In vitro antibacterial activity of 6538P strain of Gram positive bacteria Staphylococcus aureus
Streptococcus pyogenes [8] = assay: In vitro antibacterial activity of PIU2584 strain of Gram positive bacteria Streptococcus pyogenes
Staphylococcus aureus [9] = assay: In vitro antibacterial activity of A-5278 strain of Gram positive bacteria Staphylococcus aureus

| MIC (Streptococcus pyogenes [1]) | MIC (Haemophilus influenzae) | MIC (Streptococcus pneumoniae [2]) | MIC (Staphylococcus aureus [3]) | MIC (Streptococcus pneumoniae [4]) | MIC (Streptococcus pyogenes [5]) | MIC (Streptococcus pneumoniae [6]) | MIC (Staphylococcus aureus [7]) | MIC (Streptococcus pyogenes [8]) | MIC (Staphylococcus aureus [9]) | SMILES |
| --- | --- | --- | --- | --- | --- | --- | --- | --- | --- | --- |
| 0.03 µg/mL (≈ 0.0401 µM) | 16 µg/mL (≈ 21.4 µM) | 0.06 µg/mL (≈ 0.0802 µM) | 0.2 µg/mL (≈ 0.267 µM) | 64 µg/mL (≈ 85.6 µM) | 64 µg/mL (≈ 85.6 µM) | 1 µg/mL (≈ 1.34 µM) | 0.39 µg/mL (≈ 0.521 µM) | 1 µg/mL (≈ 1.34 µM) | 50 µg/mL (≈ 66.8 µM) | CC[C@H]1OC(=O)/C(C)=C/[C@H](C)[C@@H](O[C@@H]2O[C@H](C)C[C@H](N(C)C)[C@H]2O)[C@@](C)(OC)C[C@@H](C)C(=O)[C@H](C)[C@H]2N(NCCCc3ccc(F)cc3)C(=O)O[C@]12C |
| > 128 µg/mL | > 128 µg/mL | > 128 µg/mL | > 100 µg/mL | > 128 µg/mL | > 128 µg/mL | > 128 µg/mL | > 100 µg/mL | > 128 µg/mL | > 100 µg/mL | CC[C@H]1OC(=O)/C(C)=C/[C@H](C)[C@@H](O[C@@H]2O[C@H](C)C[C@H](N(C)C)[C@H]2O)[C@@](C)(OC)C[C@@H](C)C2=NN3C(=O)O[C@@]1(C)[C@H]3[C@H]2C |
| 0.25 µg/mL (≈ 0.349 µM) | > 64 µg/mL | 0.25 µg/mL (≈ 0.349 µM) | 0.78 µg/mL (≈ 1.09 µM) | > 64 µg/mL | 64 µg/mL (≈ 89.4 µM) | 2 µg/mL (≈ 2.79 µM) | 0.78 µg/mL (≈ 1.09 µM) | 2 µg/mL (≈ 2.79 µM) | > 100 µg/mL | CC[C@H]1OC(=O)/C(C)=C/[C@H](C)[C@@H](O[C@@H]2O[C@H](C)C[C@H](N(C)C)[C@H]2O)[C@@](C)(OC)C[C@@H](C)C(=O)[C@H](C)[C@H]2N(NCCc3ccccc3)C(=O)O[C@]12C |
| 0.03 µg/mL (≈ 0.041 µM) | 4 µg/mL (≈ 5.47 µM) | 0.03 µg/mL (≈ 0.041 µM) | 0.2 µg/mL (≈ 0.273 µM) | > 128 µg/mL | > 128 µg/mL | 1 µg/mL (≈ 1.37 µM) | 0.2 µg/mL (≈ 0.273 µM) | 0.5 µg/mL (≈ 0.683 µM) | > 100 µg/mL | CC[C@H]1OC(=O)/C(C)=C/[C@H](C)[C@@H](O[C@@H]2O[C@H](C)C[C@H](N(C)C)[C@H]2O)[C@@](C)(OC)C[C@@H](C)C(=O)[C@H](C)[C@H]2N(NCc3ccccc3CO)C(=O)O[C@]12C |
| 0.004 µg/mL (≈ 0.00524 µM) | 2 µg/mL (≈ 2.62 µM) | 0.03 µg/mL (≈ 0.0393 µM) | 0.01 µg/mL (≈ 0.0131 µM) | > 128 µg/mL | 64 µg/mL (≈ 83.9 µM) | 0.5 µg/mL (≈ 0.655 µM) | 0.02 µg/mL (≈ 0.0262 µM) | 0.25 µg/mL (≈ 0.328 µM) | > 100 µg/mL | CC[C@H]1OC(=O)/C(C)=C/[C@H](C)[C@@H](O[C@@H]2O[C@H](C)C[C@H](N(C)C)[C@H]2O)[C@@](C)(OC)C[C@@H](C)C(=O)[C@H](C)[C@H]2N(NC/C=C/c3ccc([N+](=O)[O-])o3)C(=O)O[C@]12C |
| 0.25 µg/mL (≈ 0.314 µM) | 16 µg/mL (≈ 20.1 µM) | 0.5 µg/mL (≈ 0.629 µM) | 3.1 µg/mL (≈ 3.9 µM) | 32 µg/mL (≈ 40.3 µM) | 16 µg/mL (≈ 20.1 µM) | 2 µg/mL (≈ 2.52 µM) | 3.1 µg/mL (≈ 3.9 µM) | 2 µg/mL (≈ 2.52 µM) | 100 µg/mL (≈ 126 µM) | CC[C@H]1OC(=O)/C(C)=C/[C@H](C)[C@@H](O[C@@H]2O[C@H](C)C[C@H](N(C)C)[C@H]2O)[C@@](C)(OC)C[C@@H](C)C(=O)[C@H](C)[C@H]2N(NCc3ccc(N(C)C)c4ccccc34)C(=O)O[C@]12C |
| 0.03 µg/mL (≈ 0.0392 µM) | 16 µg/mL (≈ 20.9 µM) | 0.125 µg/mL (≈ 0.164 µM) | 0.2 µg/mL (≈ 0.262 µM) | 32 µg/mL (≈ 41.9 µM) | 16 µg/mL (≈ 20.9 µM) | 1 µg/mL (≈ 1.31 µM) | 0.2 µg/mL (≈ 0.262 µM) | 1 µg/mL (≈ 1.31 µM) | 50 µg/mL (≈ 65.4 µM) | CC[C@H]1OC(=O)/C(C)=C/[C@H](C)[C@@H](O[C@@H]2O[C@H](C)C[C@H](N(C)C)[C@H]2O)[C@@](C)(OC)C[C@@H](C)C(=O)[C@H](C)[C@H]2N(NCCCc3ccccc3Cl)C(=O)O[C@]12C |
| 0.06 µg/mL (≈ 0.0824 µM) | 8 µg/mL (≈ 11 µM) | 0.03 µg/mL (≈ 0.0412 µM) | 0.1 µg/mL (≈ 0.137 µM) | 32 µg/mL (≈ 44 µM) | 32 µg/mL (≈ 44 µM) | 1 µg/mL (≈ 1.37 µM) | 0.02 µg/mL (≈ 0.0275 µM) | 0.5 µg/mL (≈ 0.687 µM) | 100 µg/mL (≈ 137 µM) | CC[C@H]1OC(=O)/C(C)=C/[C@H](C)[C@@H](O[C@@H]2O[C@H](C)C[C@H](N(C)C)[C@H]2O)[C@@](C)(OC)C[C@@H](C)C(=O)[C@H](C)[C@H]2N(NC/C=C/c3ccccc3)C(=O)O[C@]12C |
